Earlier results in patent US20240398845A1, “USE OF SGLT-2 INHIBITORS FOR THE PREVENTION AND/OR TREATMENT OF CARDIAC DISEASES IN NON-HUMAN MAMMALS EXCLUDING FELINES, IN PARTICULAR CANINES” (BOEHRINGER INGELHEIM VETMEDICA GMBH, priority 2021, published 2024).

Assays:
[1] = system: canine atrial fibrillation model; settings: cited from earlier work
[2] = system: non-diabetic heart failure; settings: cited from earlier work
[3] = system: adults with heart failure and reduced ejection fraction; settings: with and without diabetes; cited from earlier work
[4] = system: Stage B2 dogs (MMVD); settings: cited from earlier work
[5] = system: mitral regurgitation-induced myocardial dysfunction; settings: cited from earlier work

Cc1ccc([C@@H]2O[C@H](CO)[C@@H](O)[C@H](O)[C@H]2O)cc1Cc1ccc(-c2ccc(F)cc2)s1 [canagliflozin, Canagliflozin]
atrial remodeling [1]: suppresses atrial remodeling

OC[C@H]1O[C@@H](c2ccc(Cl)c(Cc3ccc(O[C@H]4CCOC4)cc3)c2)[C@H](O)[C@@H](O)[C@@H]1O [empagliflozin, Empagliflozin]
adverse left ventricular remodeling [2]: ameliorates adverse left ventricular remodeling | risk for the composite endpoint of cardiovascular death or hospitalization due to heart failure [3]: reduced the risk

COc1ccc(-c2nc3ccc(C4=NNC(=O)CC4C)cc3[nH]2)cc1 (centres unmarked) [pimobendan]
preclinical period [4]: prolongation of the preclinical period

CCOc1ccc(Cc2cc([C@@H]3O[C@H](CO)[C@@H](O)[C@H](O)[C@H]3O)ccc2Cl)cc1 [dapagliflozin, Dapagliflozin]
cardiac hemodynamics and arrhythmogenesis [5]: improves cardiac hemodynamics and mitigates arrhythmogenesis
